Target: fully phosphorylated, active Mouse ERK2 protein (Mus musculus (Mouse), UniProt P63085)
Experiment: Active ERK2 (aERK) IMAP assay
Assay type: biochemical
Settings: IMAP fluorescence polarization; 30 μM ATP; 30 minute pre-incubation
Protocol: 14 μl of kinase buffer (10 mM Tris.HCl pH 7.2, 10 mM MgCl2, 0.01% Tween-20, 1 mM DTT) containing 0.4 ng unphosphorylated Mouse ERK2 protein was added to each well of a black 384-well assay plate. […] DMSO concentration during initial incubation is 6.7%. […] DMSO concentration during ERK activation was 4%. After one hour, reactions were terminated by addition of 60 μl IMAP detections beads in binding buffer (Molecular Devices). Binding was allowed to equilibrate for 30 minutes before reading the plate on an LJL Analyst Fluorescence Polarization plate reader.
Active ERK2 (aERK) Assay:
Activated ERK2 activity was also determined in the IMAP assay format using the procedure outlined above. […] Reactions proceeded for 30 minutes before termination by addition of 60 μl IMAP detection beads in binding buffer. Plates were read as above after 30 minute binding equilibration.

Chain of fully phosphorylated, active Mouse ERK2 protein (P63085 whole entry): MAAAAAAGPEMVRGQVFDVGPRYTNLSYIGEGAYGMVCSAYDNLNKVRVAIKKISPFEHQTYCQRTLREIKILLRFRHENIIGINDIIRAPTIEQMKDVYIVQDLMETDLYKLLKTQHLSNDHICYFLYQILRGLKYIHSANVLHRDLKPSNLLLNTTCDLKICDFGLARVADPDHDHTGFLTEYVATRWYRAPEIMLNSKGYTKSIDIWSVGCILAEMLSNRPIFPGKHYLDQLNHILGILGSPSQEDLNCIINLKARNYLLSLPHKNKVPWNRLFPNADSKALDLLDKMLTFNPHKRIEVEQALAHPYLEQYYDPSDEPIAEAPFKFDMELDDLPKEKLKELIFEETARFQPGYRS

SMILES | IC50
O=C(N[C@H]1CCC[C@@](O)(Cc2ccccc2F)C1)c1ccc2[nH]nc(-c3ccc4nccn4c3)c2c1 (relative stereo) [compound 9, N-[trans-3-[(2-fluorophenyl)methyl]-3-hydroxycyclohexyl]-3-imidazo[1,2-a]pyridin-6-yl-1H-indazole-5-carboxamide] | 48.7 nM
Cc1cc(-c2n[nH]c3ccc(C(=O)N[C@@H]4CCC[C@@](O)(Cn5cnc6ncccc65)C4)cc23)ccn1 (relative stereo) [compound 81, N-[cis-3-hydroxy-3-(1H-imidazo[4,5-b]pyridin-1-ylmethyl)cyclohexyl]-3-(2-methyl-4-pyridinyl)-1H-indazole-5-carboxamide] | 825 nM
Cc1cc(-c2n[nH]c3ccc(C(=O)N[C@@H]4CCC[C@](O)(Cn5cncn5)C4)cc23)ccn1 (relative stereo) [compound 63, N-[trans-3-hydroxy-3-(1H-1,2,4-triazol-1-ylmethyl)cyclohexyl]-3-(2-methyl-4-pyridinyl)-1H-indazole-5-carboxamide] | 197 nM
Cc1cc(-c2n[nH]c3ccc(C(=O)N[C@H]4CCC[C@](O)(Cn5c(C)nc6ccccc65)C4)cc23)ccn1 [compound 70] | 332 nM
Cc1cc(-c2n[nH]c3ccc(C(=O)N[C@@H]4CCC[C@@](O)(Cn5ncc6ccccc65)C4)cc23)ccn1 [compound 66, N-[3(S)-hydroxy-3-(1H-indazol-1-ylmethyl)-1(R)-cyclohexyl]-3-(2-methyl-4-pyridinyl)-1H-indazole-5-carboxamide] | 7 nM
Cc1nc2ccc(-c3n[nH]c4ccc(C(=O)N[C@@H]5CCC[C@](O)(Cc6ccccc6F)C5)cc34)cc2s1 [compound 13, N-[3(S)-[(2-fluorophenyl)methyl]-3-hydroxy-1(R)-cyclohexyl]-3-(2-methyl-6-benzothiazolyl)-1H-indazole-5-carboxamide] | 19.9 nM
Cc1cc(-c2n[nH]c3ccc(C(=O)NC4CCCC(Oc5ccccc5F)C4)cc23)ccn1 (single isomer, unassigned) [compound 28, N-[3-(2-fluorophenoxy)cyclohexyl]-3-(2-methyl-4-pyridinyl)-1H-indazole-5-carboxamide] | 113 nM
Cn1cc2cc(-c3n[nH]c4ccc(C(=O)N[C@@H]5CCC[C@](O)(Cc6c(F)cccc6F)C5)cc34)ccc2n1 [compound 19, N-[3(S)-[(2,6-difluorophenyl)methyl]-3-hydroxy-1(R)-cyclohexyl]-3-(2-methyl-2H-indazol-5-yl)-1H-indazole-5-carboxamide] | 12.1 nM
O=C(N[C@@H]1CCC[C@](O)(Cc2c(F)cccc2F)C1)c1ccc2[nH]nc(-c3ccc4ncsc4c3)c2c1 [compound 20, 3-(6-benzothiazolyl)-N-[3(S)-[(2,6-difluorophenyl)methyl]-3-hydroxy-1(R)-cyclohexyl]-1H-indazole-5-carboxamide] | 33.9 nM
Cc1cc(-c2n[nH]c3ccc(C(=O)NC4CCCC(Oc5ccccc5F)C4)cc23)ccn1 (single isomer, unassigned) [compound 27, N-[3-(2-fluorophenoxy)cyclohexyl]-3-(2-methyl-4-pyridinyl)-1H-indazole-5-carboxamidem] | 61 nM
Cc1cc(-c2n[nH]c3ccc(C(=O)NC4CCCC(CO)(Oc5cccc(F)c5)C4)cc23)ccn1 (single isomer, unassigned) [compound 45, N-[3-(3-fluorophenoxy)-3-(hydroxymethyl)cyclohexyl]-3-(2-methyl-4-pyridinyl)-1H-indazole-5-carboxamide] | 187 nM
O=C(N[C@@H]1CCC[C@](O)(Cn2ccccc2=O)C1)c1ccc2[nH]nc(-c3ccc4nccn4c3)c2c1 (relative stereo) [compound 85, N-[trans-3-hydroxy-3-[(2-oxo-1(2h)-pyridinyl)methyl]cyclohexyl]-3-imidazo[1,2-a]pyridiN-6-yl-1H-indazole-5-carboxamide] | 1000 nM
Cc1cc(-c2n[nH]c3ccc(C(=O)N[C@H]4CCC[C@@](O)(Cn5c(C)nc6ccccc65)C4)cc23)ccn1 [compound 69, N-[trans-3-hydroxy-3-[(2-methyl-1H-benzimidazol-1-yl)methyl]cyclohexyl]-3-(2-methyl-4-pyridinyl)-H-indazole-5-carboxamide] | 53 nM
Cc1cc(-c2n[nH]c3ccc(C(=O)NC4CCCC(Oc5ccccc5Cl)C4)cc23)ccn1 (single isomer, unassigned) [compound 34, N-[3-(2-chlorophenoxy)cyclohexyl]-3-(2-methyl-4-pyridinyl)-1H-indazole-5-carboxamide] | 198 nM
Cc1cc(-c2n[nH]c3ccc(C(=O)NC4CCCC(O)(C(O)c5ccccc5)C4)cc23)ccn1 (stereo not drawn) [compound 51, N-[3-hydroxy-3-(hydroxyphenylmethyl)cyclohex-yl]-3-(2-methyl-4-pyridinyl)-1H-indazole-5-carboxamide (diasterimer 3)] | 204 nM
CC(C)Oc1cc(-c2n[nH]c3ccc(C(=O)N[C@@H]4CCC[C@](O)(Cc5ccccc5F)C4)cc23)ccn1 [compound 16, N-[3(S)-[(2-fluorophenyl)methyl]-3-hydroxy-1(R)-cyclohexyl]-3-[2-(1-methylethoxy)-4-pyridinyl]-1H-indazole-5-carboxamide] | 301 nM
O=C(N[C@@H]1CCC[C@](O)(Cc2ccccc2F)C1)c1ccc2[nH]nc(-c3ccc4nccn4c3)c2c1 [compound 15, N-[3(S)-[(2-fluorophenyl)methyl]-3-hydroxy-1(R)-cyclohexyl]-3-imidazo[1,2-a]pyridin-6-yl-1H-indazole-5-carboxamide] | 8.6 nM
COc1cccc(F)c1C[C@@]1(O)CCC[C@@H](NC(=O)c2ccc3[nH]nc(-c4ccc5nc(C)sc5c4)c3c2)C1 [compound 24, N-[3(S)-[(2-fluoro-6-methoxyphenyl)methyl]-3-hydroxy-1(R)-cyclohexyl]-3-(2-methyl-6-benzothiazolyl)-1H-indazole-5-carboxamide] | 8.9 nM

Other lines, results leading:

IC50 | SMILES
1000 nM | Cc1cc(-c2n[nH]c3ccc(C(=O)NC4CCCC(Cn5ncc6ccc(C(F)(F)F)cc65)C4)cc23)ccn1 (mixture of isomers) [compound 125, 3-(2-methyl-4-pyridinyl)-N-[cis/trans-3-[[6-(trifluoromethyl)-1H-indazol-1-yl]methyl]cyclohexyl]-1H-indazole-5-carboxamide]
514 nM | Cc1cc(-c2n[nH]c3ccc(C(=O)NC4CCCC(N)(Cc5ccccc5F)C4)cc23)ccn1 (stereo not drawn) [compound 152, N-[3-amino-3-[(2-fluorophenyl)methyl]cyclohexyl]-3-(2-methyl-4-pyridinyl)-1H-indazole-5-carboxamide]
445 nM | Cc1cc(-c2n[nH]c3ccc(C(=O)NC4CCCC(CO)(Cc5c(F)cccc5F)C4)cc23)ccn1 (stereo not drawn) [compound 137, N-[3-[(2,6-difluorophenyl)methyl]-3-(hydroxymethyl)cyclohexyl]-3-(2-methyl-4-pyridinyl)-1H-indazole-5-carboxamide]
29.3 nM | Cn1cc2cc(-c3n[nH]c4ccc(C(=O)NC5CCCC(Cn6ccnc6)C5)cc34)ccc2n1 (stereo not drawn) [compound 108, N-[3-(1H-imidazol-1-ylmethyl)cyclohexyl]-3-(2-methyl-2H-indazol-5-yl)-1H-indazole-5-carboxamide]
26.8 nM | Cc1cc(-c2n[nH]c3ccc(C(=O)NN4CCCC(Oc5ccccc5F)C4)cc23)ccn1 (stereo not drawn) [compound 143, N-[3-(2-fluorophenoxy)-1-piperidinyl]-3-(2-methyl-4-pyridinyl)-1H-indazole-5-carboxamide]
1000 nM | Cc1cc(-c2n[nH]c3ccc(C(=O)N[C@H]4CCC[C@@](O)(Cn5cc(C#N)c6ccccc65)C4)cc23)ccn1 (relative stereo) [compound 95, N-[trans-3-[(3-cyano-1H-indol-1-yl)methyl]-3-hydroxycyclohexyl]-3-(2-methyl-4-pyridinyl)-1H-indazole-5-carboxamide]
937 nM | COCC1(Cc2ccccc2F)CCCN(NC(=O)c2ccc3[nH]nc(-c4ccnc(C)c4)c3c2)C1 (stereo not drawn) [compound 149, N-[3-[(2-fluorophenyl)methyl]-3-(methoxymethyl)-1-piperidinyl]-3-(2-methyl-4-pyridinyl)-1H-indazole-5-carboxamide]
84.4 nM | Cc1cc(-c2n[nH]c3ccc(C(=O)NN4CCCC(Oc5ccccc5Cl)C4)cc23)ccn1 (stereo not drawn) [compound 141, N-[3-(2-chlorophenoxy)-1-piperidinyl]-3-(2-methyl-4-pyridinyl)-1H-indazole-5-carboxamide]
28.7 nM | Cc1cc(-c2n[nH]c3ccc(C(=O)NN4CCCC4CCc4ccccc4)cc23)ccn1 (stereo not drawn) [compound 145, 3-(2-methyl-4-pyridinyl)-N-[2-(2-phenylethyl)-1-pynolidinyl]-1H-indazole-5-carboxamide]
1000 nM | Cc1nc2ccc(-c3n[nH]c4ccc(C(=O)NC5CCCC(Cn6c(C)nc7ccccc76)C5)cc34)cc2s1 (stereo not drawn) [compound 127, N-[3-[(2-methyl-1H-benzimidazol-1-yl)methyl]cyclohexyl]-3-(2-methyl-6-benzothiazolyl)-1H-indazole-5-carboxamide]
109 nM | Cc1cc(-c2n[nH]c3ccc(C(=O)NC4CCCC(CO)(Cc5ccccc5F)C4)cc23)ccn1 (stereo not drawn) [compound 133, N-[3-[(2-fluorophenyl)methyl]-3-(hydroxymethyl)cyclohexyl]-3-(2-methyl-4-pyridinyl)-1H-indazole-5-carboxamide]
1000 nM | CCOC(=O)C1(Cc2ccccc2F)CCCC(NC(=O)c2ccc3[nH]nc(-c4ccnc(C)c4)c3c2)C1 (mixture of isomers) [compound 128, ethyl cis/trans-1-[(2-fluorophenyl)methyl]-3-[[[3-(2-methyl-4-pyridinyl)-1H-indazol-5-yl]carbonyl]amino]cyclo-hexanecarboxylate]

— patent US9351965B2, “Indazole derivatives useful as ERK inhibitors” (Merck Sharp & Dohme Corp., priority 2010, dated 2016)
